For experiment [1], the target named is T1, Human CB1 receptor (Homo sapiens, UniProt P21554). The experiment is described as follows: Radioligand binding assay vs [3H]CP55,940, membranes of CHO cells expressing human CB1. To be noted: CHO cell membranes. As to the method: (§1) Radioligand b inding assays at CB1 and CB 2 receptors
(§2) Competition binding assays were performed using the CB receptor agonist radioligand [3H](−)- cis-3-[2-hydroxy-4-(1,1-dimethylheptyl)phenyl]-trans-4-(3-hydroxypropyl)-cyclohexanol as previously described [S1]. Briefly, membrane preparations of Chinese hamster ovary (CHO) cells stably expressing human CB1 or CB2 receptor were used (30 μg of protein/well for CB1 and 16 µg of protein/well for CB2-receptor preparations). All stock solutions of test compounds ([…]) were prepared in DMSO. After 2 h of incubation, a mixture containing 15 μL of the […]
(§3) mM MgCl2, 0.1% BSA, pH 7.4), 60 μL of membrane preparation (in 50 mM TRIS buffer) and 465 μL of assay buffer, were filtered through GF/C glass fiber filters (presoaked for 0.5 h in 0.3% aq. polyethyleneimine solution), using a Brandel 96-channel cell harvester (Brandel, Gaithersburg, MD). Radioactivity on the filters was then measured in a liquid scintillation counter (Topcount NXT, Packard/Perkin-Elmer) after 10 h of preincubation with 50 µl of scintillation cocktail (Multiscint 25, Perkin-Elmer). […]

Another experiment deals with control HEK293 cells. The experiment is described as follows: Trupath BRET2 assay in control HEK293 cells transfected with only Gαi1-Rluc8, ß3 and γ9-GFP2. Type of experiment: cell-based. To be noted: cells without CB receptor.
The target of experiment [2] is T2, Human CB2 receptor (Homo sapiens, UniProt P34972). Briefly: Radioligand binding assay vs [3H]CP55,940, membranes of CHO cells expressing human CB2. On the set-up: expressed in transfected cells; membrane preparations. To be noted: CHO cell membranes. As to the method: as §1, §2, §3
T2 sequence (P34972 whole entry): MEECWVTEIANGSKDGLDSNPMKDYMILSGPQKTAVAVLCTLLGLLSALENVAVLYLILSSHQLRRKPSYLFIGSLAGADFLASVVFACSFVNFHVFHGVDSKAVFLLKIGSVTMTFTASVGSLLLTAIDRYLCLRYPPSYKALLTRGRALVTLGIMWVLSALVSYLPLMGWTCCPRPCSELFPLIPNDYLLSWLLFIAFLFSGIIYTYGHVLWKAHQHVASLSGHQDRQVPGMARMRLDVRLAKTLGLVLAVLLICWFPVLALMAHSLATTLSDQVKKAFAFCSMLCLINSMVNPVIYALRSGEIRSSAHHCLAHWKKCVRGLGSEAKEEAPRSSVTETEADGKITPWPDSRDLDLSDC
The target in experiment [3] is T1, Human CB1 receptor. Briefly: Trupath BRET2 functional assay in HEK293 cells transfected with human CB1. Type of experiment: cell-based. On the set-up: expressed in transfected cells; host or cells: HEK293 cells, transient transfection (Lipofectamine 2000); receptor in pcDNA3.1(+); Trupath plasmids Addgene kit #1000000163. The settings on record: for agonistic activity at human CB1: agonist mode, BRET2; for IC50: read-out: IC50, blockade of CB1 receptor activation. The protocol:
(§4) Functional assays at CB1 and CB2 receptors
(§5) Functional assays of the selected compounds were assessed using the Trupath BRET 2 assay system as recently described [S2]. The Trupath plasmids were a gift from Bryan Roth’s Laboratory (Addgene kit #1000000163). Briefly, HEK293 cells were seeded in a 6 well-plate at adensity of 700.000 cells/well and incubated for 4h. Plasmids containing Gαi1-Rluc8, ß3 and γ9-GFP2 and either human CB 1 or CB2 in pcDNA3.1(+) at a ratio of 1:1:1:1 were mixed with Lipofectamine 2000 and transfected according to the manufacturer’s protocol. The cells were further incubated overnight, then harvested and seeded at a density of 40.000 cells/well in 96 well-plates with full growth medium, and cultured for another 24h. On the day of the […]
(§6) culture medium was carefully discarded and replaced by 60 µL of HBSS-HEPES buffer, followed by the addition of 10 µL of 50 µM Coelenterazine 400a. For testing of agonistic activity, the test compounds were added to the wells in a volume of 30 µL and incubated for 5 min. For antagonist testing, compounds were added in a volume of 15 µL, incubated for 5 min, […]
(§7) incubated for another 5 min. Test compounds were dissolved in DMSO and the final DMSO concentration in the assays was 1%. Finally, the signal was measured using a Mitras LB400 according to previously published literature[S3]. Data were obtained from 3-4independent experiments performed in duplicate.
Background: Bioluminescence resonance energy transfer reports proximity on the nanometre scale.

The target of experiment [4] is T2, Human CB2 receptor. Briefly: Trupath BRET2 functional assay in HEK293 cells transfected with human CB2. Type of experiment: cell-based. Set-up: expressed in transfected cells; host or cells: HEK293 cells, transient transfection (Lipofectamine 2000); receptor in pcDNA3.1(+); Trupath plasmids Addgene kit #1000000163. To be noted: for agonistic activity at human CB2: agonist mode, BRET2. As to the method:
as §4, §5, §6, §7

Experiment [5] concerns the target T1, Human CB1 receptor. On the set-up: method as in PMID 7565624. To be noted: previously reported; cited from earlier work.
A further experiment relates to CB1 receptors. Set-up: method as in PMID 19286662. To be noted: previously shown; cited from earlier work.
For experiment [6], the target named is T2, Human CB2 receptor. On the set-up: expressed in transfected cells; membrane preparations; method as in PMID 7565624. The settings on record: previously reported; cited from earlier work.

For orientation: Ki means the equilibrium dissociation constant of an inhibitor or competing ligand from its target. What is called IC50 is the concentration at which inhibition is half-maximal. As a reminder, the EC50 is the concentration giving half of the maximal effect.

Molecules are shown by their SMILES. “Also recorded” adds a separate entry of the source. Read-outs that look alike come from different tables or passages of the source.

T1 sequence (P21554 whole entry): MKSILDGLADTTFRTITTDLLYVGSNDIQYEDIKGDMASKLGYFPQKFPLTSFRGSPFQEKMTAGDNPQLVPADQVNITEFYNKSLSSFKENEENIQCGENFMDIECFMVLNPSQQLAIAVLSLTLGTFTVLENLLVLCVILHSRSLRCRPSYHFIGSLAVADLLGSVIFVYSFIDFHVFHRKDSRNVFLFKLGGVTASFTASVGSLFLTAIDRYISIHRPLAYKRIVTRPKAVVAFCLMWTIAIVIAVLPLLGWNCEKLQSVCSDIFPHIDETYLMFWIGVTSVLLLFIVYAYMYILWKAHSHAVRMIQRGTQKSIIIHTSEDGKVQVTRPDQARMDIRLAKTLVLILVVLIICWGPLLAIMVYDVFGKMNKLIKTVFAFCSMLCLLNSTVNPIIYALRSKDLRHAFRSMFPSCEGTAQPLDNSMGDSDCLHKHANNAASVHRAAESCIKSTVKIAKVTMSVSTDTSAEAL

For `COc1ccc2[nH]cc(C(c3ccccc3)(c3c[nH]c4ccccc34)C(F)(F)C(F)(F)F)c2c1` (stereo not shown) [3ad], on Human CB1 receptor [1], the Ki worked out at 1.82 ± 0.09 µM. For the same compound, in the experiment with control HEK293 cells, the “effect in non-transfected control cells” value is “did not show any effect”. The affinity at Human CB2 receptor [2], expressed as Ki, was 11.2 ± 0.5 µM. In addition, on Human CB1 receptor [3] (BRET2, HEK293), the “inverse agonistic activity (effect on basal activity) at CB1” value is “less pronounced; also recorded: inverse agonistic activity”. In addition, at Human CB1 receptor [3], the “agonistic activity at human CB1” value is listed as “no agonistic activity” and the IC50 was 5.22 ± 0.68 µM. The “agonistic activity at human CB2” value at Human CB2 receptor [4] was “no agonistic activity”.
For `c1ccc2c(Cc3c[nH]c4ccccc34)c[nH]c2c1` [I, diindolylmethane], the Ki is 4.3 µM at Human CB1 receptor [5] and 1.1 µM on Human CB2 receptor [6]. In addition, the “functional activity at CB1 receptors” value with CB1 receptors is “weak inverse agonist”.
For the compound `COc1ccc2[nH]cc(C(c3ccccc3)(c3c[nH]c4cc(F)c(F)cc34)C(F)(F)F)c2c1` (stereo not shown) [3h], the Ki amounted to 4.78 ± 1.26 µM at Human CB1 receptor [1] and 9.9 ± 1.45 µM on Human CB2 receptor [2].
As for `Fc1cc2[nH]cc(C(c3ccccc3)(c3c[nH]c4ccccc34)C(F)(F)F)c2cc1F` (stereo not shown) [3n], the Ki at Human CB1 receptor [1] is 2.04 ± 0.08 µM; at Human CB2 receptor [2], 6.14 ± 0.13 µM.
On to `COc1ccc2[nH]cc(C(c3ccccc3)(c3c[nH]c4cccc(OC)c34)C(F)(F)F)c2c1` (stereo not shown) [3b], for which the figures for the Ki on Human CB1 receptor [1] and on Human CB2 receptor [2] were 7.64 ± 0.8 µM and 4.75 ± 0.34 µM, respectively.
Regarding `COc1ccc2[nH]cc(C(c3ccccc3)(c3c[nH]c4c(Br)cccc34)C(F)(F)F)c2c1` (stereo not shown) [3g], the Ki at Human CB1 receptor [1] stood at 4.02 ± 0.22 µM; on Human CB2 receptor [2], 4.62 ± 0.33 µM.
`COc1ccc2[nH]cc(C(c3ccccc3)(c3c[nH]c4ccccc34)C(F)(F)F)c2c1` (stereo not shown) [3a, 5-methoxy-3-(2,2,2-trifluoro-1-(1H-indol-3-yl)-1-phenylethyl)-1H-indole]: the Ki on Human CB1 receptor [1] was found to be 4.23 ± 0.03 µM; at Human CB2 receptor [2] it was 6.04 ± 0.11 µM.
With `COc1ccc2[nH]cc(C(c3ccccc3)(c3c[nH]c4cc(F)ccc34)C(F)(F)F)c2c1` (stereo not shown) [3e], the Ki came to 3.21 ± 0.25 µM at Human CB1 receptor [1] and 4.47 ± 0.12 µM at Human CB2 receptor [2]. Also, the “inverse agonistic activity (effect on basal activity) at CB1” value at Human CB1 receptor [3] (BRET2, HEK293) is “reduced the basal activity; also recorded: inverse agonistic activity”. In addition, the “agonistic activity at human CB1” value at Human CB1 receptor [3] is reported as “no agonistic activity”. Further, the IC50 on Human CB1 receptor [3] is 5.68 ± 0.54 µM. Besides, at Human CB1 receptor [3] (reduction of basal activity, BRET2, HEK293, read-out: EC50, inverse agonist at CB1 receptors), the EC50 worked out at 0.786 ± 0.233 µM. Besides, on Human CB2 receptor [4], the “agonistic activity at human CB2” value was “no agonistic activity”. In addition, the “inhibition of CB2 receptor activation” value against Human CB2 receptor [4] (antagonist mode, CP55,940 at its EC80, compared with CB1) was “weaker”.
